Measured values as given in patent US20260308186A1, “STAT DEGRADERS AND USES THEREOF” (Recludix Pharma, Inc., priority 2023, published 2026).

biological target: T1, pSTAT6 (Homo sapiens, UniProt P42226); test: MSD-pSTAT-PBMC Assay, pSTAT6 (IL-4 stimulated PBMC); type: cell-based; details: compound 3 hrs, then 1 ng/mL IL-4 for 10 min, pY641-STAT6, read-out: pSTAT6 IC50
T1 construct: pY641-STAT6 MSD read-out
T1 sequence (P42226 1-847): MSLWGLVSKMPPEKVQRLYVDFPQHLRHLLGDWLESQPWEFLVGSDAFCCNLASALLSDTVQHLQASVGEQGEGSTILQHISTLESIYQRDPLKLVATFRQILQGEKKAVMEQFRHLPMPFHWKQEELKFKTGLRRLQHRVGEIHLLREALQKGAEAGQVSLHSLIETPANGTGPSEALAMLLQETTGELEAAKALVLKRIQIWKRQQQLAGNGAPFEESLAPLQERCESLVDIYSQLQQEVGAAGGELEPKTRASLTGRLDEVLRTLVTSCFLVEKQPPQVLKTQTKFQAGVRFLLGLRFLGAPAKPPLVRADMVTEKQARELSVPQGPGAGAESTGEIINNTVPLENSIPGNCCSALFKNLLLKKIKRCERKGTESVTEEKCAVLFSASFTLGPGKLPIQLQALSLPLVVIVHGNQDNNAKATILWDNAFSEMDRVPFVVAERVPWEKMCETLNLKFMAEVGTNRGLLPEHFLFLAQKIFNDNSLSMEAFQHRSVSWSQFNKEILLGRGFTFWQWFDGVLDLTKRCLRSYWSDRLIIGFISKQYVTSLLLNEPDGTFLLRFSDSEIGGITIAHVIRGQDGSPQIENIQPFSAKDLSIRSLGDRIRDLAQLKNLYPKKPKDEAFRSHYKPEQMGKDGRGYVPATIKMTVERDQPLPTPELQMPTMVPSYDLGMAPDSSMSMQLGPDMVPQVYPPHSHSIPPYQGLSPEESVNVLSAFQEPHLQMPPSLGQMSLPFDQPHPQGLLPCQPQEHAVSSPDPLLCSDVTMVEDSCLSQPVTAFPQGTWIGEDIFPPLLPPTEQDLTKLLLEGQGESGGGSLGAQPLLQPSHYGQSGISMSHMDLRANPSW
Text: Cryopreserved Peripheral Blood Mononuclear Cells (PBMC) are from AllCells. Recombinant Human IL-4 and IL-6 are from Peprotech. Mouse monoclonal anti-STAT3 antibody, rabbit monoclonal anti-pY705-STAT3 antibody, rabbit monoclonal Anti-pY641-STAT6 antibody, and lysis buffer are from Cell Signaling Technology (CST). Mouse monoclonal anti-STAT6 antibody is from BioLegend. Assay plates, blocker, and anti-rabbit secondary antibody are from Meso Scale Discovery (MSD).
Cryopreserved PBMCs were thawed out and allowed to recover overnight in IMDM+10% heat-inactivated FBS prior to plating 50,000 (STAT3) or 25,000 (STAT6) cells per well in 96-well U-bottom tissue culture plates. Cells were treated with compound for 3 hrs. then stimulated with 10 ng/mL IL-6 (STAT3) or 1 ng/mL IL-4 (STAT6) for 10 min. Cells were then spun down and washed with ice-cold PBS prior to lysing the cell pellet with 1× lysis buffer (CST) with 1×HALT protease and phosphatase inhibitor cocktail (Thermo). Lysates were transferred to and incubated overnight at 4° C. with shaking in QuickPlex 96-well high bind assay plates (MSD) pre-coated overnight with 30 μL per well of 0.6 μg/mL mouse monoclonal anti-STAT3 antibody (STAT3) or 2 μg/mL mouse monoclonal anti-STAT6 antibody (STAT6) in 1×PBS, and pre-blocked for 1 hour with 3% Blocker-A (MSD). Captured protein in the assay plates were then washed and probed with 25 μL per well of 0.25 μg/ml rabbit monoclonal anti-pY705-STAT3 antibody (STAT3) or 0.18 μg/ml rabbit monoclonal Anti-pY641-STAT6 antibody (STAT6) in 1% Blocker-A for 1 hour at room temperature with shaking, then washed and probed with 25 ul per well of 1 ug/ml Sulfo-TAG Labeled Goat Anti-Rabbit Antibody (MSD) in 1% Blocker-A for 1 hour at room temperature with shaking. Assay plates were then washed and 150 μL of 1× Read Buffer-T (MSD) was added to each well prior to reading on an SQ120 MSD Plate Reader. Assay signal from each sample was subtracted by the signal from unstimulated control wells and normalized to DMSO control wells. IC50 values were calculated using Graph Pad Prism Dose-Response Nonlinear Regression with variable slope. For both pSTAT3 and pSTAT6 A=≤100 nM; B=>100-1000 nM; C=>1000-3000 nM; and D=>3 μM.

Row | IC50 [µM] | SMILES
1 | > 3 | Cc1ccc2onc(C(=O)N3CC[C@H]4CC[C@@H](C(=O)N(C)CCCCCCC#Cc5cccc6c5CN(C5CCC(=O)NC5=O)C6=O)N4C(=O)[C@@H](NC(=O)c4ccc5ccc(C(F)(F)P(=O)(O)OCCSC(=O)C(C)(C)C)cc5c4)C3)c2c1 (stereo partly drawn) [Compound 17, S-(2-((((7-(((5S,8S,10aR)-8-((8-(2-(2,6-dioxopiperidin-3-yl)-1-oxoisoindolin-4-yl)oct-7-yn-1-yl)(methyl)carbamoyl)-3-(5-methylbenzo[d]isoxazole-3-carbonyl)-6-oxodecahydropyrrolo[1,2-a][1,5]diazocin-5-yl)carbamoyl)naphthalen-2-yl)difluoromethyl)(hydroxy)phosphoryl)oxy)ethyl) 2,2-dimethylpropanethioate]
2 | < 0.1 | Cc1ccc2onc(C(=O)N3CC[C@H]4CC[C@@H](C(=O)N(C)CCCCCCC#Cc5cccc6c5CN(C5CCC(=O)NC5=O)C6=O)N4C(=O)[C@@H](NC(=O)c4ccc5ccc(C(F)(F)P(=O)(OCCSC(=O)C(C)(C)C)OCCSC(=O)C(C)(C)C)cc5c4)C3)c2c1 (stereo partly drawn) [Compound 18, S,S′-(((((7-(((5S,8S,10aR)-8-((8-(2-(2,6-dioxopiperidin-3-yl)-1-oxoisoindolin-4-yl)oct-7-yn-1-yl)(methyl)carbamoyl)-3-(5-methylbenzo[d]isoxazole-3-carbonyl)-6-oxodecahydropyrrolo[1,2-a][1,5]diazocin-5-yl)carbamoyl)naphthalen-2-yl)difluoromethyl)phosphoryl)bis(oxy))bis(ethane-2,1-diyl)) bis(2,2-dimethylpropanethioate)]
3 | < 0.1 | Cc1ccc2onc(C(=O)N3CC[C@H]4CC[C@@H](C(=O)N(C)CCCCCCC#Cc5cccc6c5CN(C5CCC(=O)NC5=O)C6=O)N4C(=O)[C@@H](NC(=O)c4ccc5ccc(C(F)(F)P(=O)(OCOC(=O)OC(C)C)OCOC(=O)OC(C)C)cc5c4)C3)c2c1 (stereo partly drawn) [Compound 19, ((((7-(((5S,8S,10aR)-8-((8-(2-(2,6-dioxopiperidin-3-yl)-1-oxoisoindolin-4-yl)oct-7-yn-1-yl)(methyl)carbamoyl)-3-(5-methylbenzo[d]isoxazole-3-carbonyl)-6-oxodecahydropyrrolo[1,2-a][1,5]diazocin-5-yl)carbamoyl)naphthalen-2-yl)difluoromethyl)phosphoryl)bis(oxy))bis(methylene) diisopropyl bis(carbonate)]
4 | 1 to 3 | Cc1ccc2onc(C(=O)N3CC[C@H]4CC[C@@H](C(=O)N(C)CCCCCCC#Cc5cccc6c5CN(C5CCC(=O)NC5=O)C6=O)N4C(=O)[C@@H](NC(=O)c4ccc5ccc(C(F)(F)P(=O)(O)OCOC(=O)OC(C)C)cc5c4)C3)c2c1 (stereo partly drawn) [Compound 20, ((((7-(((5S,8S,10aR)-8-((8-(2-(2,6-dioxopiperidin-3-yl)-1-oxoisoindolin-4-yl)oct-7-yn-1-yl)(methyl)carbamoyl)-3-(5-methylbenzo[d]isoxazole-3-carbonyl)-6-oxodecahydropyrrolo[1,2-a][1,5]diazocin-5-yl)carbamoyl)naphthalen-2-yl)difluoromethyl)(hydroxy)phosphoryl)oxy)methyl isopropyl carbonate]
5 | > 3 | Cc1ccc2onc(C(=O)N3CC[C@H]4CC[C@@H](C(=O)N(C)CCCCCCC#Cc5cccc6c5CN(C5CCC(=O)NC5=O)C6=O)N4C(=O)[C@@H](NC(=O)c4ccc5ccc(C(F)(F)P(=O)(O)OCCSC(=O)CC(C)C)cc5c4)C3)c2c1 (stereo partly drawn) [Compound 23, S-(2-((((7-(((5S,8S,10aR)-8-((8-(2-(2,6-dioxopiperidin-3-yl)-1-oxoisoindolin-4-yl)oct-7-yn-1-yl)(methyl)carbamoyl)-3-(5-methylbenzo[d]isoxazole-3-carbonyl)-6-oxodecahydropyrrolo[1,2-a][1,5]diazocin-5-yl)carbamoyl)naphthalen-2-yl)difluoromethyl)(hydroxy)phosphoryl)oxy)ethyl) 3-methylbutanethioate]
6 | > 3 | CC(=O)N[C@H](C(=O)N1C[C@H](O)C[C@H]1C(=O)NCc1ccc(-c2scnc2C)cc1OCCCCN(C)C(=O)[C@@H]1CC[C@@H]2CCN(C(=O)c3noc4ccc(C)cc34)C[C@H](NC(=O)c3ccc4ccc(C(F)(F)P(=O)(O)O)cc4c3)C(=O)N21)C(C)(C)C [Compound 31, ((7-(((5S,8S,10aR)-8-((4-(2-(((2S,4R)-1-((S)-2-acetamido-3,3-dimethylbutanoyl)-4-hydroxypyrrolidine-2-carboxamido)methyl)-5-(4-methylthiazol-5-yl)phenoxy)butyl)(methyl)carbamoyl)-3-(5-methylbenzo[d]isoxazole-3-carbonyl)-6-oxodecahydropyrrolo[1,2-a][1,5]diazocin-5-yl)carbamoyl)naphthalen-2-yl)difluoromethyl)phosphonic acid]

same assay, conditions: read-out: pSTAT6 IC50, compound 3 hrs, then 1 ng/mL IL-4 for 10 min, pY641-STAT6

Row | SMILES | IC50 [µM]
7 | CCCOC(=O)[C@H](C)NP(=O)(Cc1ccc2ccc(C(=O)N[C@H]3CN(C(=O)c4n[nH]c5ccc(C)cc45)CC[C@H]4CC[C@@H](C(=O)N(C)CCCCCCC#Cc5cccc6c5CN(C5CCC(=O)NC5=O)C6=O)N4C3=O)cc2c1)Oc1ccccc1 (stereo partly drawn) [Compound 16, propyl (((7-(((5S,8S,10aR)-8-((8-(2-(2,6-dioxopiperidin-3-yl)-1-oxoisoindolin-4-yl)oct-7-yn-1-yl)(methyl)carbamoyl)-3-(5-methyl-1H-indazole-3-carbonyl)-6-oxodecahydropyrrolo[1,2-a][1,5]diazocin-5-yl)carbamoyl)naphthalen-2-yl)methyl)(phenoxy)phosphoryl)-L-alaninate] | > 3
8 | CCCOC(=O)[C@H](C)NP(=O)(Oc1ccccc1)C(F)c1ccc2ccc(C(=O)N[C@H]3CN(C(=O)c4noc5ccc(C)cc45)CC[C@H]4CC[C@@H](C(=O)N(C)CCCCCCC#Cc5cccc6c5CN(C5CCC(=O)NC5=O)C6=O)N4C3=O)cc2c1 (stereo partly drawn) [Compound 26, propyl (((7-(((5S,8S,10aR)-8-((8-(2-(2,6-dioxopiperidin-3-yl)-1-oxoisoindolin-4-yl)oct-7-yn-1-yl)(methyl)carbamoyl)-3-(5-methylbenzo[d]isoxazole-3-carbonyl)-6-oxodecahydropyrrolo[1,2-a][1,5]diazocin-5-yl)carbamoyl)naphthalen-2-yl)fluoromethyl)(phenoxy)phosphoryl)-L-alaninate] | > 3

biological target: T2, STAT3 (Homo sapiens, UniProt P40763); test: STAT3 Fluorescence Polarization (FP) Assay; type: binding; details: recombinant STAT3 25 nM; probe 5-FAM-GpYLPQTV-NH2 2 nM; 45 min, room temperature; read-out: STAT3 FP IC50
T2 construct: Recombinant STAT3 protein (STAT3(G127-1722))
T2 sequence (P40763 127-722 limits assumed): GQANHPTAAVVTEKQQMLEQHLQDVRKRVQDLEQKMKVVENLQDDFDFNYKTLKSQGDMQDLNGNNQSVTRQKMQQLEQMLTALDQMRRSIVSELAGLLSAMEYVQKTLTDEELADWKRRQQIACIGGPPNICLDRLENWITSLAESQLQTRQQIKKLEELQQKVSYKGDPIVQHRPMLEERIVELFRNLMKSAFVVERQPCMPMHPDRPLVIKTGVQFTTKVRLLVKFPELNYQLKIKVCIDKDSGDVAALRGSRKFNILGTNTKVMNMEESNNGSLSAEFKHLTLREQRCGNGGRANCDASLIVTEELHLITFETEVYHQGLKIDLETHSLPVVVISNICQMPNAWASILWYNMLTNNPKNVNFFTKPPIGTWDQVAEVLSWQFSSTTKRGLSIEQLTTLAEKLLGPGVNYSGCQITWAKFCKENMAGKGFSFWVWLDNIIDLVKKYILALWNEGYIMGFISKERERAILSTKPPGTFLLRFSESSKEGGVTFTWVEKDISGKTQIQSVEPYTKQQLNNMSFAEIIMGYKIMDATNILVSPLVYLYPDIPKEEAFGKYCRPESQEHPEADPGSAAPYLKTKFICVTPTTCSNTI
Procedure: STAT3 Fluorescence Polarization (FP) Assay
An FP assay was developed to determine IC50 values for test substances. Recombinant STAT3 protein (STAT3(G127-1722)) at 25 nM was combined with a fluorescently labeled, phosphotyrosine peptide probe (5-FAM-GpYLPQTV-NH2) at 2 nM in FP buffer (10 mM HEPES pH 7.4, 50 mM NaCl, 1 mM EDTA, 0.05% Tween 20.2 mM DTT). 50 μL of STAT3-probe mixture was added to serial diluted compounds in black, 96-well plates (Greiner BioOne 655076) to a final concentration of 1% DMSO. Reaction components were mixed, and FP was measured after 45-minute incubation at room temperature using a Tecan Spark multimode plate reader. FP signal (mP) was plotted against the log concentration of the test substances and IC50 values were calculated by nonlinear regression analysis using GraphPad Prism software. For STAT3 FP assay. A=≤100 nM; B=>100-1000 nM; C=>1-10 μM; and D=>10 μM.

Row | IC50 [µM] | SMILES
9 | 1 to 10 | CC(=O)N[C@H](C(=O)N1C[C@H](O)C[C@H]1C(=O)NCc1ccc(-c2scnc2C)cc1OCCCCN(C)C(=O)[C@@H]1CC[C@@H]2CCN(C(=O)c3noc4ccc(C)cc34)C[C@H](NC(=O)c3ccc4ccc(C(F)(F)P(=O)(O)O)cc4c3)C(=O)N21)C(C)(C)C [Compound 31, ((7-(((5S,8S,10aR)-8-((4-(2-(((2S,4R)-1-((S)-2-acetamido-3,3-dimethylbutanoyl)-4-hydroxypyrrolidine-2-carboxamido)methyl)-5-(4-methylthiazol-5-yl)phenoxy)butyl)(methyl)carbamoyl)-3-(5-methylbenzo[d]isoxazole-3-carbonyl)-6-oxodecahydropyrrolo[1,2-a][1,5]diazocin-5-yl)carbamoyl)naphthalen-2-yl)difluoromethyl)phosphonic acid]
